Series [1] deals with L. donovani 1S promastigotes. Details: method as in PMID 33491807. The note with it: read-out: L. donovani 1S promas. IC50; cited from earlier work.
Series [2] relates to L. major intramacrophage amastigotes. The series can be described thus: Intramacrophage antileishmanial growth inhibition assay. The class given is cell-based, Leishmania major. The note with it: for inhibition at 10 µM: Leishmania major, L. major strain IR‐173 (as headed) intramacrophage amastigotes, read-out: Anti‐amastigote growth inhibition (%); for host cell and parasite death in L. major anti‐amastigote screening: 2 mM of compound, L. major only. The method, then:
(§1) A modified resazurin assay[47, 48] and the two Leishmania strains were also used to assess the efficacy of synthesised compounds against intramacrophage parasites.
(§2) Human monocytic leukemia (THP‐1) cells were cultured in RPMI 1640 medium with L‐glutamine (Sigma Aldrich) supplemented with, 1 % penicillin/streptomycin solution (Lonza), 10 % fetal bovine serum (FBS; Thermofisher Scientific) and 2 g/L sodium bicarbonate (Sigma Aldrich). The cells were maintained in a humidified environment at 37 °C and 5 % CO2.
(§3) For the intramacrophage assay, a 500 000 cells/mL THP‐1 cell suspension was prepared, 25 ng/mL phorbol 12‐myristate 13‐acetate (PMA) added and the suspension seeded in 96 well plates (Nunc, Thermofisher Scientific) at 200 μL/well. Cell‐free growth medium was included as the blank. The plates were incubated for 48 hours in a humidified environment at 37 °C and 5 % CO2 to encourage the differentiation of the suspended cells to adherent macrophages.
(§4) To eliminate non‐adherent cells after the PMA treatment, the plates were carefully washed once with warm PBS. Then, a premade promastigote suspension ([…]) was added. The suspension consisted of stationary phase promastigotes in THP‐1 cell growth medium, with a multiplicity of infection (MOI) of 30 : 1. Parasite‐free medium was also added to selected THP‐1 cell‐containing wells to serve as parasite blank. The plates were thoroughly rinsed four times with warm PBS to get rid of extracellular parasites after being cultured for 24 hours to encourage macrophage infection. The cells were then treated with 160 μL of growth medium and 40 μL of either solvent (parasite blank and negative control with parasites) or 40 μL of compound solutions. For a dual‐point activity screening, 10 μM and 2 mM of compound were prepared in separate plates. Amphothericin B (10 μM) served as the standard antileishmanial drug. The plates were incubated for 72 hours in a humidified environment at 37 °C and 5 % CO2.
(§5) For the plates treated with 10 μM of compound, any serum and extracellular promastigotes that remained were carefully removed from the wells by rinsing with warm PBS. The wells were then treated with 20 μL of 0.05 % sodium dodecyl sulphate (SDS; Sigma Aldrich) in PBS for 30 sec to lyse the macrophages. Lysis was terminated with the addition of 180 μL promastigote growth medium with 10 % FBS. For the resazurin assay, 10 μL of resazurin solution (0.025 % in PBS) was added to each well and the plates were further incubated at 37 °C in for 72 hours in the dark to measure amastigote recovery to proliferative promastigotes.
Any remaining extracellular promastigotes were afterwards carefully removed from the wells by rinsing with warm PBS. The wells were then treated with 50 μL of resazurin solution (0.01 % in PBS) and the plates were further incubated at 37 °C for 4 hours in the dark to assess host cell viability.
(§6) A Thermofisher Scientific's GO Multiscan plate reader was used to measure absorbance at 570 nm and 600 nm. SkanIt 4.0 Research Edition software was used to perform the data analysis for every biological replicate. Background absorbance (600 nm) was subtracted from the 570 nm absorbance data and the mean absorbance was computed.
(§7) For the activity screening, the following formula was used to determine growth inhibition percentage: Growthinhibition%=100-[(ΔAbssample-ΔAbsblank)/(ΔAbsnegcontrol-ΔAbsblank)X100]

For another series, the system named is Vero. Set-up: method as in PMID 33491807. The note with it: cited from earlier work.
In series [3] the test system is L. major (strain NIH S (MHOM/SN/74/Seidman)) promastigotes. Put plainly: Antipromastigote resazurin assay. The settings on record: for IC50 / inhibition at 10 µM: Leishmania major; for IC50: promastigotes, maximum concentration 2 mM, ±standard deviation; for inhibition at 10 µM: L. major strain IR‐173 (as headed) promastigotes, read-out: Antipromastigote growth inhibition (%). It is filed as cell-based, Leishmania major.

For series [4], the system named is L. donovani strain 9515 intramacrophage amastigotes. The series can be described thus: Intramacrophage antileishmanial growth inhibition assay. It is filed as cell-based. The settings on record: Leishmania donovani, read-out: Anti‐amastigote growth inhibition (%). The method, then:
as §1, §2, §3, §4, §5, §6, §7

For series [5], the system named is L. donovani strain 1S amastigote. Set-up: method as in PMID 33491807. The settings on record: previous study; cited from earlier work.
For series [6], the system named is Leishmania donovani (strain 9515 (MHOM/IN/95/9515)) promastigotes. The series can be described thus: Antipromastigote resazurin assay. The class given is cell-based. The note with it: for IC50 / inhibition at 10 µM: Leishmania donovani; for IC50: promastigotes, maximum concentration 2 mM, ±standard deviation, read-out: L. donovani 9515 antipromastigote IC50; for inhibition at 10 µM: L. donovani strain 9515 promastigotes, read-out: Antipromastigote growth inhibition (%). The method, then: The antipromastigote activity of synthesised compounds was evaluated using a modified method of the resazurin assay[45, 46] against two Leishmania strains.
Leishmania donovani (strain 9515 (MHOM/IN/95/9515)) and L. major (strain NIH S (MHOM/SN/74/Seidman)) promastigotes were cultured in M199 with Hank's salts and 0.68 mM L‐glutamine (Sigma Aldrich) supplemented with 0.0005 % hemin, 0.0001 % biotin, 0.1 mM adenine (Sigma Aldrich), 10 % fetal bovine serum, 50 U/mL Penicillin/Streptomycin solution, 4.2 mM sodium bicarbonate and 25 mM Hepes buffer. The promastigotes were maintained at an adjusted pH of 7.3–7.4 growth medium at 26 °C. […] Amphothericin B (10 μM) served as the standard antileishmanial drug and parasite‐free growth medium was included as the blank. The plates were incubated for 48 hours at 26 °C in humidified environment.
Following the initial incubation, 50 μL of resazurin solution (0.01 % in PBS) was added to each well and the plates underwent further incubation at 26 °C for 24 hours in the dark. A Thermofisher Scientific's GO Multiscan plate reader was used to measure absorbance at 570 nm and 600 nm. SkanIt 4.0 Research Edition software was used to perform the data analysis for every biological replicate. Background absorbance (600 nm) was subtracted from the 570 nm absorbance data and the mean absorbance was computed. The cell viability and data analysis were performed as indicated in the cytotoxicity assay.

The next series relates to Vero cells. The series can be described thus: Cytotoxicity resazurin assay. It is filed as cell-based. The settings on record: Chlorocebus sabaeus, 48 hours, ±standard deviation, maximum concentration 2 mM. The protocol: The cytotoxicity of the synthesised compounds was evaluated using the resazurin assay. The assay involves live cells converting oxidized blue resazurin dye to pink, highly fluorescent resorufin through irreversible enzymatic reduction.[44] This non‐toxic reagent is a useful instrument for determining drug toxicity and cell growth.
Dulbecco's modified Eagle's medium (DMEM) with high glucose (Separations) supplemented with 1 % L‐glutamine, non‐essential amino acids, and penicillin‐streptomycin (Sigma Aldrich), and 10 % fetal bovine serum (Thermofisher Scientific) was used to cultivate Vero cells. The cells were kept at 37 °C and 5 % CO2 in a humidified environment. For the assay, 96 well plates were prepared by pipetting 100 μL of cell suspension (60 000 cells/mL) per well and incubating the plates for 24 hours. The cells were then treated with seven two‐fold concentration dilutions of: (1) 1 μM emetine dihydrochloride (Sigma Aldrich) solution (positive control); (2) 2 mM experimental compound solutions. Cell‐free growth medium was included as a blank. The treated plates were incubated for 48 hours.
To initiate the resazurin assay, 50 μL of sterile‐filtered resazurin sodium salt (Sigma Aldrich) solution (0.01 % in phosphate‐buffered saline (PBS)) was added to the prepared plates and then incubated for 2 hours. A Thermofisher Scientific's GO Multiscan plate reader was used to measure the absorbance at 570 and 600 nm. SkanIt 4.0 Research Edition software was used to perform the data analysis for every biological replicate. After subtracting background absorbance (600 nm) from the 570 nm absorbance data, the mean absorbance was computed, and the percentage of viable cells was estimated using the formula below: Cellviability%=(ΔAbssample-ΔAbsblank)/(ΔAbsnegcontrol-ΔAbsblank)X100
GraphPad Prism 5 was used to calculate the IC50 and Z‐score for each compound's biological replicate. The mean IC50 of the biological replicates and standard deviation (SD) was calculated to determine the final IC50 of each compound.
(In general: The colour change of resazurin is a common sign of viable cells or microbes.)

Several values for one entry are separate records, joined by “and”; a condition that tells them apart may be missing. Identical values can stand only once.

As for `O=S1(=O)NC=Nc2ccccc21` [Compound 1, 2H‐Benzo[e][1,2,4]thiadiazine‐1,1‐dioxide], the melting point (in general, the temperature of the solid-liquid transition) is 223 to 226 °C. Also, in series [1], the IC50 (in general, the concentration at which inhibition is half-maximal) was < 10 µM and 7.33 µM. Besides, in series [2], the inhibition – broadly, the relative decrease from the control value, in per cent – at 10 µM worked out at 0%. Also, in the series with Vero, the IC50 is over 100 µM. In series [3], the “SI2: Selectivity index=IC50 Vero/L. major antipromastigote IC50” value is 0.38, half-maximal inhibition (IC50) was put at 861 ± 46.5 µM and the inhibition at 10 µM was found to be 0%. Besides, the inhibition at 10 µM in series [4] was 0%. Also, in [5], the “activity against L. donovani strain 1S amastigote” value was “sub‐micromolar activity”. For the same molecule, in series [6], the “SI1: Selectivity index=IC50 Vero/L. donovani 9515 antipromastigote IC50” value was 0.53, the IC50 was 612 ± 30.9 µM and the inhibition at 10 µM was 10%. The same molecule yielded a half-maximal inhibitory concentration (IC50) with Vero cells of 323 ± 215 µM.
In turn, `O=S1(=O)c2ccccc2N=CN1CCO` [Compound 2, 2‐(2‐Hydroxyethyl)‐2H‐benzo[e][1,2,4]thiadiazine‐1,1‐dioxide] returned a melting point of 167 to 170 °C. Moreover, in series [2], the inhibition at 10 µM was found to be 0%. Further, in series [3], the “SI2: Selectivity index=IC50 Vero/L. major antipromastigote IC50” value is reported as 0.70 and the inhibition at 10 µM is 0%. Moreover, the inhibition at 10 µM in series [4] is 0%. Also, in series [6], the “SI1: Selectivity index=IC50 Vero/L. donovani 9515 antipromastigote IC50” value came out at 0.90, the IC50 turned out to be 839 ± 41.9 µM and the inhibition at 10 µM stood at 0%. This molecule showed an IC50 in the series with Vero cells of 752 ± 174 µM.
`O=S1(=O)c2ccccc2N=CN1CCOc1ccc(Br)cc1` [Compound 10, 2‐[2‐(4‐Bromophenoxy)ethyl]‐2H‐benzo[e][1,2,4]thiadiazine‐1,1‐dioxide] registered a melting point of 217 to 220 °C. Also, in series [2], the inhibition at 10 µM was 0%. Further, in [3], the “SI2: Selectivity index=IC50 Vero/L. major antipromastigote IC50” value is 0.47 and the inhibition at 10 µM is 0%. Besides, in series [4], the inhibition at 10 µM was found to be 0%. Also, in series [6], the “SI1: Selectivity index=IC50 Vero/L. donovani 9515 antipromastigote IC50” value is 0.73, the IC50 amounted to 906 ± 62.1 µM and the inhibition at 10 µM stood at 0%. This molecule had an IC50 in the series on Vero cells of 663 ± 24 µM.
On to `O=S1(=O)c2ccccc2N=CN1CCOc1ccc(Cl)cc1` [Compound 11, 2‐[2‐(4‐Chlorophenoxy)ethyl]‐2H‐benzo[e][1,2,4]thiadiazine‐1,1‐dioxide], for which, in [2], the “host cell and parasite death in L. major anti‐amastigote screening” value (shortened to “host cell and parasite death”) is “killed both parasite and host cell”; the inhibition at 10 µM is 0%. Moreover, in [3], the “SI2: Selectivity index=IC50 Vero/L. major antipromastigote IC50” value turned out to be 2.49, half-maximal inhibition (IC50) required 300 ± 3.68 µM and the inhibition at 10 µM stood at 0%. The inhibition at 10 µM in series [4] was 0%. For the same molecule, in series [6], the “SI1: Selectivity index=IC50 Vero/L. donovani 9515 antipromastigote IC50” value was determined as 2.57, the half-maximal inhibitory concentration (IC50) is 290 ± 21.4 µM and the inhibition at 10 µM was 3%. The IC50 with Vero cells is 747 ± 188 µM.
Take `O=[N+]([O-])c1ccc(OCCN2C=Nc3ccccc3S2(=O)=O)cc1` [Compound 12, 2‐[2‐(4‐Nitrophenoxy)ethyl]‐2H‐benzo[e][1,2,4]thiadiazine‐1,1‐dioxide]: the “host cell and parasite death” value in series [2] was “killed both parasite and host cell”. In addition, the inhibition at 10 µM in series [2] is 0%; in series [3], 0%; in [4], 0%; in [6] it was 9%. For the same molecule, in [3], the “SI2: Selectivity index=IC50 Vero/L. major antipromastigote IC50” value worked out at 0.85. For the same molecule, the results for the concentration for half-maximal inhibition (IC50) (in [3]; in series [6]; in the series on Vero cells) were 783 ± 408 µM, 411 ± 27.9 µM and 667 ± 58 µM, respectively. The “SI1: Selectivity index=IC50 Vero/L. donovani 9515 antipromastigote IC50” value in series [6] worked out at 1.62.
As to `C=CCOCCN1C=Nc2ccccc2S1(=O)=O` [Compound 13, 2‐[2‐(Allyloxy)ethyl]‐2H‐benzo[e][1,2,4]thiadiazine‐1,1‐dioxide], the “host cell and parasite death” value in series [2] is “killed both parasite and host cell”. Besides, the inhibition at 10 µM was 0% in series [2], 0% in series [3], 0% in [4] and 15% in series [6]. Further, in series [3], the “SI2: Selectivity index=IC50 Vero/L. major antipromastigote IC50” value is 1.17. Moreover, the IC50 in [3] is 455 ± 9.55 µM; in [6] it was 360 ± 12.5 µM; in the series with Vero cells, 531 ± 15.7 µM.
On to `C#CCN1C=Nc2ccccc2S1(=O)=O` [Compound 14, 2‐(Prop‐2‐yn‐1‐yl)‐2H‐benzo[e][1,2,4]thiadiazine‐1,1‐dioxide], for which, in series [2], the “host cell and parasite death” value was “killed both parasite and host cell”; the inhibition at 10 µM was 0%. In addition, in [3], the “SI2: Selectivity index=IC50 Vero/L. major antipromastigote IC50” value came to 2.89; the midpoint of inhibition, the IC50, lay at 185 ± 22.1 µM; the inhibition at 10 µM was 23%. Also, the inhibition at 10 µM in series [4] stood at 0%. Also, in series [6], the “SI1: Selectivity index=IC50 Vero/L. donovani 9515 antipromastigote IC50” value is recorded as 2.25, the IC50 came out at 238 ± 14.5 µM and the inhibition at 10 µM amounted to 1%. The half-inhibitory concentration (IC50) with Vero cells worked out at 535 ± 21.8 µM.

The record behind these values is paper PMC11741150, “Synthesis and In Vitro Antileishmanial Efficacy of Novel Ethylene Glycol Analogues of Benzothiadiazine‐1,1‐dioxide” (Chemistry & Biodiversity, 2024).
